In one data set the test system is PC12 cells. The note with it: literature reference 20; cited from earlier work.
The subject of data set [1] is HEK293T cells expressing YFP-labeled A53T α-syn. In words: Cell culture seeding assay: α-syn aggregated in the presence of inhibitors, mixture transfected, puncta counted. Type of data set: cell-based, human. The note with it: for seeding competence of α-syn aggregated in presence of peptide (particles/puncta per well): 50 μM α-syn aggregated with 10, 5, 2, 1 fold excess (S71: equimolar and sub-stoichiometric), monitored up to 3 days. An excerpt:
(§1) We tested the efficacy of the inhibitors in preventing aggregation in a cell culture model. For these assays, we utilized two HEK293T cells that stably express YFP-labeled full-length WT α-syn and A53T α-syn (Sanders D W, et al. (2014) Neuron 82(6):1271-1288). In this model, lipofectamine-mediated transfection of recombinant fibrils leads to aggregation of the endogenous YFP-labeled protein that are seen as fluorescent puncta. Additionally, these puncta increase in size and number over time. This proliferation of aggregates over time is indicative of a ‘seeding’ phenomenon whereby a small amount of amyloid fibrils induces aggregation of the endogenous protein. First we tested the parent peptide segment, NACore to check its effect on seeding. α-syn was aggregated in the presence of molar excess of NACore (FIG. 2B). The mixture was transfected in cells and puncta formation was visualized and the number of puncta were counted as particles per well. […] Next we aggregated 50 μM α-syn in the presence of 500 μM, 250 μM, 100 μM and 50 μM inhibitor corresponding to 10, 5, 2 and 1 fold excess. The mixture was then transfected in cells and aggregation was monitored over time for up to 3 days by fluorescence imaging (FIG. 2A).
(§2) HEK293T cells that stably express YFP labeled WT α-syn and A53T α-syn were a generous gift from Dr. Marc Diamond. Cells were grown in Dulbecco's modified Eagle's medium (Gibco) supplemented with 10% fetal bovine serum (HyClone), 1% penicillin/streptomycin (Gibco), and 1% glutamax (Gibco) in a humidified incubator in 37° C., 5% CO2.
(§3) 10,000 cells in 90 μL media were plated in 96 well black wall plate (Cat #3660) and allowed to adhere overnight. α-syn was transfected at a final monomer concentration of 125 nM. Lipofectamine 2000 was diluted in OptiMEM media (2.5+17.5 μL) and incubated at room temperature for 5 mins. Protein aggregates were diluted in OptiMEM media (1:20) and sonicated in a water bath sonicator for 3 mins at low pulse. Diluted lipofectamine and protein samples were then mixed 1:1 and incubated at room temperature for 20 mins and thereafter 10 μL was added to each well. All samples are added in triplicates and experiments were repeated a minimum of two times. For co-transfection of α-syn fibrils with inhibitors, the fibrils and inhibitors were diluted in OptiMEM and incubated for 3 hours followed by sonication.
(§4) Puncta formation and cell growth was measured using Celigo Imaging Cell Cytometer allowing for unbiased measurement. Wells were imaged using fluorescent GFP channel and confluence was measured using Celigo analysis software. Images of entire well were taken and particles counted by ImageJ by particle analysis. Same settings were used to analyze wells of one plate at all days. Total particles counted in each well were normalized against the confluence and reported as particles per well.

Data set [2] relates to HEK293T cells expressing YFP-labeled WT α-syn. The data set is described as above. To be noted: for seeding competence of α-syn aggregated in presence of peptide (particles/puncta per well): 50 μM α-syn aggregated with 10, 5, 2, 1 fold excess (S71: equimolar and sub-stoichiometric), monitored up to 3 days. It is filed as cell-based, human.
Excerpt: as §1, §2, §3, §4

Data set [3] has as its system HEK293T cells expressing YFP-labeled A53T α-syn. Briefly: Cell culture seeding assay: recombinant α-syn fibrils co-transfected with inhibitors. To be noted: for seeding capacity of α-syn fibrils co-transfected with peptide (particles per well normalized to buffer): 125 nM recombinant α-syn fibrils; for concentrations at which seeding was reduced: 125 nM α-syn fibrils co-transfected. It is filed as cell-based, human. The method, then:
(§5) We tested the efficacy of the inhibitors to prevent seeding in the cell culture model (FIG. 3A). We transfected the α-syn fibrils along with the different inhibitors. […] S62 was effective at concentrations of 12.5 μM and 6.25 μM in both cell lines (FIG. 3E). S71 was effective at low concentrations of 1.25 μM.
as §2, §3, §4

Data set [4] has as its system HEK293T cells expressing YFP-labeled WT α-syn. The data set is described as above. It is filed as cell-based, human. To be noted: for seeding capacity of α-syn fibrils co-transfected with peptide (particles per well normalized to buffer): 125 nM recombinant α-syn fibrils; for concentrations at which seeding was reduced: 125 nM α-syn fibrils co-transfected. The procedure: as §5, §2, §3, §4

For data set [5], the target named is T1, α-syn seeded by PD tissue-extracted filaments (Homo sapiens, UniProt P37840).
T1 construct: Full length α-syn was purified according to published protocols; made in house; host or cells: E. coli BL21 (DE3) gold
In words: ThT assay of α-syn aggregation seeded by PD brain tissue-extracted filaments. The note with it: filaments from 4 different subjects (seeds A-D). It is filed as biochemical. The source says: We extracted insoluble protein aggregates from frozen autopsy PD brain tissues. We obtained tissues from 4 different subjects including the substantia nigra and frontal regions of one subject and temporal and frontal regions of other subjects. Using previously described protocols (Goedert et al. (1992) Neuron 8(1):159-168) that included precipitation with the ionic detergent sarkosyl, we extracted insoluble protein aggregates (FIG. 4A). All samples robustly seeded α-syn aggregation in vitro and in our cell culture model. In vitro addition of 2% seeds increased the ThT fluorescence 4 to 10 fold (FIG. 4B, 4C, 4D) along with a small decrease in the lag time. The seeded samples were then transfected in HEK cells. Consistent with the ThT assay, all seeded samples induced rapid puncta formation (FIG. 4E, 4F, 4G). Thus, fibrils extracted from PD brain tissues seeds recombinant protein, and the aggregates formed upon seeding induce rapid puncta formation in cell culture.
(§6) We tested the effect of the different inhibitors in preventing α-syn aggregation in the presence of PD extracted seeds. […] Next we tested the seeding potency of the α-syn aggregates formed in the presence of PD seeds and the different inhibitors (FIG. 6A).
Fibril formation assays were performed with 50 μM protein concentration in conditions identical to those used for aggregating proteins for seeding assay, but with the addition of ThT. All assays were carried out in black Nunc 96-well optical bottom plates (Thermo Scientific). Plates were agitated at 600 rpm in 3-mm rotation diameter in a Varioskan microplate reader (Thermo) at 37° C. Fluorescence measurements were recorded every 30 mins using λex=444 nm, λcm=482 nm, with an integration time of 200 μs.
Human frozen brain tissues were obtained from UCLA Brain Tumor Translational Resource (BTTR). Sarkosyl insoluble protein was extracted using previously described protocols. Briefly, frozen tissue was homogenized in ice cold PBS using a dounce homogenizer at 200 mg/mL. […]

Data set [6] has as its system A53T α-syn expressing HEK cells. Briefly: Seeding potency in cells of α-syn aggregates formed in the presence of PD seeds and inhibitors. It is filed as cell-based, human. To be noted: three different PD brain extracted seeds.
Excerpt: as §6
(§7) Human frozen brain tissues were obtained from UCLA Brain Tumor Translational Resource (BTTR). Sarkosyl insoluble protein was extracted using previously described protocols. Briefly, frozen tissue was homogenized in ice cold PBS using a dounce homogenizer at 200 mg/mL. The homogenate was then diluted in buffer A (10 mM Tris 7.4, 800 mM NaCl, 1 mM EGTA, 10% Sucrose) to 50 mg/mL in total volume of 1 mL and centrifuged at 20,700 g for 20 min at 4° C. The supernatant was collected in an ultracentrifuge tube and pellet was resuspended in 0.5 mL buffer A followed by centrifugation at 20,700 g for 20 mins at 4° C. The supernatants pooled together. 150 μl 10% sarkosyl (w/v) in Millipore water was then added and incubated for 1 h at room temperature on flat rotating shaker at 700 rpm. The solution was then centrifuged at 100,000 g for 1 h at 4° C. using SW 55 Rotor (Beckman Coulter). The supernatanat was discarded and pellet was washed with 5 mL Buffer A and centrifuged at 100,000 g for 20 mins at 4° C. The pellet was resuspended in 100 μl 50 mM Tris Ph 7.4
as §3, §4

Data set [7] deals with WT α-syn expressing HEK cells. The description is as above. To be noted: three different PD brain extracted seeds. Type of data set: cell-based, human.
Excerpt: as §6, §7, §3, §4

A further data set has as its system WT YFP-α-syn HEK cells. In words: PD filament seeded α-syn fibrils transfected along with inhibitors. Type of data set: cell-based, human. The note with it: two different PD filaments; for seeding by PD filament seeded α-syn fibrils (puncta formation): fluorescence measured up to 6 days. The procedure: We tested the efficacy of the inhibitors in preventing seeding by PD fibrils in cell culture. α-syn aggregates formed in the presence of PD fibrils were transfected in WT HEK cells along with the different inhibitors (FIG. 7A).
as §7
10,000 cells in 90 μL media were plated in 96 well black wall plate (Cat #3660) and allowed to adhere overnight. α-syn was transfected at a final monomer concentration of 125 nM. Lipofectamine 2000 was diluted in OptiMEM media (2.5+17.5 μL) and incubated at room temperature for 5 mins. […]
Puncta formation and cell growth was measured using Celigo Imaging Cell Cytometer allowing for unbiased measurement. Wells were imaged using fluorescent GFP channel and confluence was measured using Celigo analysis software. Images of entire well were taken and particles counted by ImageJ by particle analysis. […] Total particles counted in each well were normalized against the confluence and reported as particles per well.

[8] abbreviates: α-syn aggregated in presence of inhibitor.

Where “and” joins values, the source holds several entries; their conditions need not be identical. Equal values may be shown once. Entries after “also recorded” stand apart in the source; their conditions may differ. Ends that are not written are not given here.

With AVVTGVTAV [SubNACore, AVVTGVTAV], in the data set on PC12 cells, the “toxicity compared with NACore” value is “not as toxic”.

For the substance “GAVVWGVTAVKKGRKKRRQRRRPQ (TAT tag) [Inhibitor S62]”, the “seeding competence of α-syn aggregated in presence of peptide (particles/puncta per well)” value (“seeding competence … (particles/puncta per well)” for short) in data set [1] and in [2] was “not seeding competent; also recorded: seeding incompetent” in each case. Further, the “seeding capacity of α-syn fibrils co-transfected with peptide (particles per well normalized to buffer)” value in data set [3] and in [4] was “reduce seeding capacity; also recorded: effective” throughout. In addition, the “concentrations at which seeding was reduced” value in data set [3] was 12.5 µM and 6.25 µM; in data set [4], 12.5 µM and 6.25 µM. In addition, in data set [5], the “inhibition of α-syn aggregation seeded by PD extracted seeds (ThT fluorescence)” value (shortened to “inhibition of α-syn aggregation seeded”) is listed as “effective against all seeds that were tested; also recorded: efficacy against all seeds”.

“GAVVWGVTAVKKKKK (C-terminal poly-lysine tag) [Inhibitor S37, W mutation at Thr72 and poly-lysine tag at the C-terminus]”: the “seeding competence … (particles/puncta per well)” value in data set [1] and in [2] was “not seeding competent; also recorded: significant reduction in seeding” each time. In addition, the “duration of reduction in seeding” value in data set [1] (setting [8]) and in data set [2] (setting [8]) was “up to 2 days” throughout. In addition, the “seeding capacity of α-syn fibrils co-transfected with peptide (particles per well normalized to buffer)” value in data set [3] and in data set [4] was “reduce seeding capacity; also recorded: significant reduction in seeding” in each case. Further, the “concentrations at which seeding was reduced” value is 12.5 µM and 6.25 µM in data set [3]; 12.5 µM and 6.25 µM in data set [4]. In addition, the “duration of reduction of seeding” value in data set [4] (single administration, co-transfection) is reported as “up to 2 days”. For the same substance, the “inhibition of α-syn aggregation seeded” value in data set [5] is “marginal reduction in ThT fluorescence”. Besides, the “seeding potency of α-syn aggregates formed in presence of PD seeds and inhibitor (puncta formation)” value in data set [6] and in [7] was “not effective in reducing the seeding potency of aggregates” in each case. In addition, the “seeding by PD filament seeded α-syn fibrils (puncta formation)” value in the data set on WT YFP-α-syn HEK cells was “prevented seeding; also recorded: prevented puncta formation”.

For “YGRKKRRQRRRAVVT{N-me-Gly}VTAVAE [Inhibitor S71]”, the “seeding competence … (particles/puncta per well)” value in data set [1] and in data set [2] was “not seeding competent; also recorded: reduce the seeding potency of the aggregates” throughout. The “seeding capacity of α-syn fibrils co-transfected with peptide (particles per well normalized to buffer)” value in data set [3] and in data set [4] was “reduce seeding capacity; also recorded: effective” each time. Also, the “concentrations at which seeding was reduced” value in data set [3] and in data set [4] was 1.25 µM throughout. The “inhibition of α-syn aggregation seeded” value in data set [5] was “effective against seeds B and D; also recorded: efficacy against all seeds”. Moreover, the “seeding potency of α-syn aggregates formed in presence of PD seeds and inhibitor (puncta formation)” value in data set [6] and in data set [7] was “effective against all three seeds; also recorded: did not induce puncta formation” in each case. The “concentrations at which seeding by PD filament seeded fibrils was prevented/reduced” value in the data set with WT YFP-α-syn HEK cells came to 6.25 µM. Besides, the “seeding by PD filament seeded α-syn fibrils (puncta formation)” value in the data set with WT YFP-α-syn HEK cells is listed as “reduced seeding; also recorded: prevented seeding”.

These data come from patent US11390646B2, “Structure-based peptide inhibitors of α-synuclein aggregation” (The Regents of the University of California, priority 2016, dated 2022).
